Source: US20210395249A1, “NEW ALKOXYAMINOPYRIDINE DERIVATIVES FOR TREATING PAIN AND PAIN RELATED CONDITIONS” (ESTEVE PHARMACEUTICALS, S.A., priority 2018, published 2021)

Key:
[1] = biological target: Human α2δ-1 subunit of Cav2.2 calcium channel (Homo sapiens, UniProt P54289); assay: Binding assay to human α2δ-1 subunit of Cav2.2 calcium channel ([3H]-Gabapentin); settings: human α2δ-1 enriched membranes, [3H]-Gabapentin 15 nM; read-out: Ki(nM) alpha2delta Hum
Method: Binding Assay to Human α2δ-1 Subunit of Cav2.2 Calcium Channel
Human α2δ-1 enriched membranes (2.5 μg) were incubated with 15 nM of radiolabeled [3H]-Gabapentin in assay buffer containing Hepes-KOH 10 mM, pH 7.4. NSB (non-specific binding) was measured by adding 10 μM pregabalin. The binding of the test compound was measured at either one concentration (% inhibition at 1 or 10 μM) or five different concentrations to determine affinity values (Ki). After 60 min incubation at 27° C., binding reaction was terminated by filtering through Multiscreen GF/C (Millipore) presoaked in 0.5% polyethyleneimine in Vacuum Manifold Station, followed by 3 washes with ice-cold filtration buffer containing 50 mM Tris-HCl, pH 7.4. Filter plates were dried at 60° C. for 1 hour and 30 μl of scintillation cocktail were added to each well before radioactivity reading. Readings were performed in a Trilux 1460 Microbeta radioactive counter (Perkin Elmer).

[2] = biological target: Human norepinephrine transporter (NET) (Homo sapiens, UniProt P23975); assay: Binding assay to human norepinephrine transporter (NET) ([3H]-Nisoxetin); settings: human NET enriched membranes, [3H]-Nisoxetin 5 nM; read-out: Ki(nM) NET Hum
Human norepinephrine transporter (NET), sequence (P23975 whole entry): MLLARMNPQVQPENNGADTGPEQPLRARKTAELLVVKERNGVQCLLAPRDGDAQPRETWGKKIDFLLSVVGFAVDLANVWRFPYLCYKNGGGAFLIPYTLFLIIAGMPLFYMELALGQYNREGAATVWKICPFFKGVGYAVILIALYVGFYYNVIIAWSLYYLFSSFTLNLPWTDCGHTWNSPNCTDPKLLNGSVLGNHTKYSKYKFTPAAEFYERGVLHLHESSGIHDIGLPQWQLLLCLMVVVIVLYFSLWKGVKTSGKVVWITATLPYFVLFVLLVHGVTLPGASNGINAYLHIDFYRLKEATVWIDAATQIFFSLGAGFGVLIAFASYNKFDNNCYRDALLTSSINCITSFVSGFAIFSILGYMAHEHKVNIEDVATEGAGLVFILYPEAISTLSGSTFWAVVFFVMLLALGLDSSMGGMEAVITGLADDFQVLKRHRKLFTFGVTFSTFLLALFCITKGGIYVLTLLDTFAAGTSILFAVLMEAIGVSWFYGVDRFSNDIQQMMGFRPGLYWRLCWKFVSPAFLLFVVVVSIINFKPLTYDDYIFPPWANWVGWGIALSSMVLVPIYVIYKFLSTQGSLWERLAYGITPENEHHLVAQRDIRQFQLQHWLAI
Method: Binding Assay to Human Norepinephrine Transporter (NET)
Human norepinephrine transporter (NET) enriched membranes (5 μg) were incubated with 5 nM of radiolabeled [3H]-Nisoxetin in assay buffer containing 50 mM Tris-HCl, 120 mM NaCl, 5 mM KCl, pH 7.4. NSB (non specific binding) was measured by adding 10 μM of desipramine. The binding of the test compound was measured at either one concentration (% inhibition at 1 or 10 μM) or five different concentrations to determine affinity values (Ki). After 60 min incubation at 4° C., binding reaction was terminated by filtering through Multiscreen GF/C (Millipore) presoaked in 0.5% polyethyleneimine in Vacuum Manifold Station, followed by 3 washes with ice-cold filtration buffer containing 50 mM Tris-HCl, 0.9% NaCl, pH 7.4. Filter plates were dried at 60° C. for 1 hour and 30 μl of scintillation cocktail were added to each well before radioactivity reading. Readings were performed in a Trilux 1450 Microbeta radioactive counter (Perkin Elmer).

Human α2δ-1 subunit of Cav2.2 calcium channel, sequence (P54289 25-1103): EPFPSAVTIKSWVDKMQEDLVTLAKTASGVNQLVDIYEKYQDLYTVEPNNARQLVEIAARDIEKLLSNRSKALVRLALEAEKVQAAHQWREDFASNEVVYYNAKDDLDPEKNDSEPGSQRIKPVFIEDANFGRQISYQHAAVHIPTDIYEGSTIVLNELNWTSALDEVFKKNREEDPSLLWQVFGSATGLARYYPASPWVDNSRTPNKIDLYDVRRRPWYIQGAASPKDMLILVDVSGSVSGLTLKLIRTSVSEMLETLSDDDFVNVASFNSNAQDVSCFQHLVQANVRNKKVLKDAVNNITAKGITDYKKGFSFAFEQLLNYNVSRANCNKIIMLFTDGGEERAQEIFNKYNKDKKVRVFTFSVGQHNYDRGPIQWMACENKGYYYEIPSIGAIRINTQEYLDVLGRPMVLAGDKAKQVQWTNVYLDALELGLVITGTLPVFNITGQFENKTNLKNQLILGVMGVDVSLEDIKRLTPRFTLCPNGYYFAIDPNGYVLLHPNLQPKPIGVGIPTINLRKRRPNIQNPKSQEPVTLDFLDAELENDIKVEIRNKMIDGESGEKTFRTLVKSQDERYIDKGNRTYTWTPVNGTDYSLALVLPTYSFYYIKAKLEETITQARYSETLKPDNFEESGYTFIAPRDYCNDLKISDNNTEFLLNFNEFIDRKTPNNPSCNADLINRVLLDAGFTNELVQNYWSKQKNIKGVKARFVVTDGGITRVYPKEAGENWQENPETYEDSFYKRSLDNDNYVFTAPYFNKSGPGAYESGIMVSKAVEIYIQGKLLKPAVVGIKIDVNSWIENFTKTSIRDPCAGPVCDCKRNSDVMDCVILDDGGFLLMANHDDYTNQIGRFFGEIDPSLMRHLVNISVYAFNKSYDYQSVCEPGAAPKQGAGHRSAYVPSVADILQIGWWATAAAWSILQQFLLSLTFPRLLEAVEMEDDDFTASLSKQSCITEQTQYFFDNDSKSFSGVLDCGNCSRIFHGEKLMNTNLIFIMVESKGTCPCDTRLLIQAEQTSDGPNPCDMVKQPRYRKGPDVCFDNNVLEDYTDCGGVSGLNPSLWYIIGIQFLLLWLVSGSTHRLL

Row | Structure (SMILES) | Ki [1] | Ki [2]
1 | CNCC[C@H](Oc1cnc(CN2CCN(C)c3ncc(F)cc3C2=O)c(F)c1)c1cccc(F)c1 [Example 2, (S)-7-fluoro-4-((3-fluoro-5-(1-(3-fluorophenyl)-3-(methylamino)propoxy)pyridin-2-yl)methyl)-1-methyl-1,2,3,4-tetrahydro-5H-pyrido[2,3-e][1,4]diazepin-5-one] | 100 to 500 nM | < 100 nM
2 | CNCC[C@H](Oc1cnc(CN2CCN(C)c3ncccc3C2=O)c(Cl)c1)c1cccc(F)c1 [Example 5, (S)-4-((3-chloro-5-(1-(3-fluorophenyl)-3-(methylamino)propoxy)pyridin-2-yl)methyl)-1-methyl-1,2,3,4-tetrahydro-5H-pyrido[2,3-e][1,4]diazapin-5-one] | < 100 nM | < 100 nM
3 | CNCC[C@H](Oc1cnc(CN2CCN(C)c3cnc(OC)cc3C2=O)c(F)c1)c1cccc(F)c1 [Example 6, (S)-4-((3-fluoro-5-(1-(3-fluorophenyl)-3-(methylamino)propoxy)pyridin-2-yl)methyl)-7-methoxy-1-methyl-1,2,3,4-tetrahydro-5H-pyrido[3,4-e][1,4]diazepin-5-one] | < 100 nM | < 100 nM
4 | CNCC[C@H](Oc1cnc(CN2CCN(C)c3ncccc3C2=O)c(F)c1)c1cccc(F)c1 [Example 7, (S)-4-((3-fluoro-5-(1-(3-fluorophenyl)-3-(methylamino)propoxy)pyridin-2-yl)methyl)-1-methyl-1,2,3,4-tetrahydro-5H-pyrido[2,3-e][1,4]diazepin-5-one] | 100 to 500 nM | < 100 nM
5 | CNCC[C@H](Oc1cnc(CN2CCN(C)c3ncccc3C2=O)c(F)c1)c1cccs1 [Example 8, (S)-4-((3-Fluoro-5-(3-(methylamino)-1-(thiophen-2-yl)propoxy)pyridin-2-yl)methyl)-1-methyl-1,2,3,4-tetrahydro-5H-pyrido[2,3-e][1,4]diazepin-5-one] | 100 to 500 nM | < 100 nM

The remaining lines, values ahead:

Row | Ki [1] | Ki [2] | Structure (SMILES)
6 | < 100 nM | < 100 nM | CNCC[C@H](Oc1cnc(CN2CCN(C)c3ncccc3C2=O)c(F)c1)c1ccccc1 [Example 1, (S)-4-((3-Fluoro-5-(3-(methylamino)-1-phenylpropoxy)pyridin-2-yl)methyl)-1-methyl-1,2,3,4-tetrahydro-5H-pyrido[2,3-e][1,4]diazepin-5-one]
7 | < 100 nM | < 100 nM | CNCC[C@H](Oc1cnc(CN2CCN(C)c3nc(N)ccc3C2=O)c(F)c1)c1cccc(F)c1 [Example 3, (S)-8-amino-4-((3-fluoro-5-(1-(3-fluorophenyl)-3-(methylamino)propoxy)pyridin-2-yl)methyl)-1-methyl-1,2,3,4-tetrahydro-5H-pyrido[2,3-e][1,4]diazepin-5-one]
8 | < 100 nM | < 100 nM | CCNc1ccc2c(n1)N(C)CCN(Cc1ncc(O[C@@H](CCNC)c3cccc(F)c3)cc1F)C2=O [Example 4, (S)-8-(ethylamino)-4-((3-fluoro-5-(1-(3-fluorophenyl)-3-(methylamino)propoxy)pyridin-2-yl)methyl)-1-methyl-1,2,3,4-tetrahydro-5H-pyrido[2,3-e][1,4]diazepin-5-one]
